# Patent EP3409671B1, “ISOTHIAZOLE DERIVATIVES AS GPR120 AGONISTS FOR THE TREATMENT OF TYPE II DIABETES” (Janssen Pharmaceutica NV, priority 2014, dated 2015)
# pEC50: −log10 of the molar value.
# Biological target: T1, long form of human GPR120 (Homo sapiens, UniProt Q5NUL3)
# T1 construct: host or cells: PathHunter CHO-K1 GPR120 β-Arrestin Cell Line
# T1 sequence (Q5NUL3 1-377 isoform Q5NUL3-1): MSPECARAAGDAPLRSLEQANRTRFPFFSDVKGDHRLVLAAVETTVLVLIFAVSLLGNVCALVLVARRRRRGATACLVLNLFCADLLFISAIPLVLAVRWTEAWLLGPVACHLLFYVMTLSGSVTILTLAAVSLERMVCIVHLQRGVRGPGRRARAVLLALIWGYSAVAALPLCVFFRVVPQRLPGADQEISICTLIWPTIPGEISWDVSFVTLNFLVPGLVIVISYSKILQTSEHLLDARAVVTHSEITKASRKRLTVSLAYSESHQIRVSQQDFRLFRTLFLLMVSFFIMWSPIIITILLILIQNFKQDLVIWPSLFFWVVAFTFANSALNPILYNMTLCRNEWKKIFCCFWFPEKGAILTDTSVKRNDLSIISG
# Assay: Human GPR120 DiscoveRx PathHunter Beta-Arrestin assay, Procedure β-arrestin A
# Assay type: cell-based
# Settings: PathHunter CHO-K1 GPR120 β-Arrestin Cell Line, long form of human GPR120, 3000 cells per well; read-out: hGPR120 β-arrestin A EC50
# Excerpt: The binding of an agonist (medium/long chain fatty acids or small molecule agonists) to the G-protein-coupled receptor GPR120 activates phospholipase C, leading to release of intracellular Ca^+2 through the generation of inositol 1,4,5-trisphosphate (InsP3 or IP3). GPR120 activation can also trigger intracellular signaling via recruitment of Beta-Arrestin. In the present method, agonist-induced activation of the human GPR120 receptor is monitored through the use of PathHunter CHO-K1 GPR120 Beta-Arrestin Cell Line engineered by DiscoveRx, as detailed below. […]
# Under these conditions, these fragments can interact and form an active Beta-gal enzyme complex through Enzyme Fragment Complementation (EFC). This active Beta-gal complex can enzymatically hydrolyse the substrate to produce a detectable light signal; therefore, activation as a function of agonist concentration can be expressed as an EC50 value to determine relative compound activities. […]
# The plates were read on an EnVision instrument, using Protocol name: Luminescence, Plate type: 384 Costar, Measurement height: 3 mm, Measurement time: 1s, Aperture: 384 Plate aperture. The %activity relative to the positive control was calculated using the following equation: %Activity = (Countcompound −Countvehicle)/(Countpostivite control −Countvehicle) × 100% [formula] […]
row,pEC50,Structure (SMILES)
1,6.75,"O=C(O)CCc1ccc(OCc2c(C(F)(F)F)nsc2-c2ccc(Cl)cc2)c(Cl)c1Cl [Cpd 55, 3-(2,3-dichloro-4-[[5-(4-chlorophenyl)-3-(trifluoromethyl)-1,2-thiazol4-yl]methoxy]phenyl) propanoic acid]"
2,6.85,"O=C(O)CCc1cc(F)c(OCc2c(Cl)nsc2-c2ccc(Cl)cc2)c(F)c1 [Cpd 75, 3-(4-[[3-chloro-5-(4-chlorophenyl)-1,2-thiazol-4-yl]methoxy]-3,5-difluorophenyl)propanoic acid]"
